Key:
[1] = system: guinea-pig ileum (histamine contractions); experiment: Antispasmodic activity in vitro, contractions caused by histamine; conditions: added 15 minutes before spasm-producing agent
Protocol: (§1) (4) The antispasmodic activity was measured in vitro, on guinea-pig ileum, the contractions of which were caused by histammne (Hist.), acetylcholine (Achol) or barium chloride (BaCl2). The tested products were added to perfusion bath 15 minutes before the spasm-producing agents.
(§2) The dose is given in micograms (μg) per ml of bath causing complete spasm inhibition.

[2] = Acute toxicity, oral, LD50 (Litchfield and Wilcoxon); conditions: mouse, in vivo, fasted male mice, confidence limits p=95% in brackets
Protocol: (1) The acute toxicity was determined on fasted male mice. The tested substances were orally administered and LD50 values (lethal dose for 50% of animals) were calculated according to the method of Litchfield and Wilcoxon (J. Pharmacol. exp. Ther. 96, 94-113, 1949). These LD50 values are given in mg/kg and also, when possible, with their confidence limits for p=95%.

[3] = system: unanaesthetized, hypertension-suffering rat; experiment: Antihypertensive activity (systolic arterial pressure), oral; assay type: in vivo; conditions: 60 mg/kg, hypertensive rat, 3 hours
Protocol: (2) The antihypertensive activity was measured on unanaesthetized, hypertension-suffering rat. The tested substances were orally given at a rate of 60 mg/kg. The systolic arterial pressure was measured every 30 minutes for 2 hours before and for 3 hours after the tested product was given. Results are expressed as follows: […]
O: no reduction of arterial pressure.
+: reduction lower than 10 mm Hg.
++: reduction of 10 to 20 mm Hg.
+++: reduction higher than 20 mm Hg.

[4] = system: guinea-pig ileum (acetylcholine contractions); experiment: Antispasmodic activity in vitro, contractions caused by acetylcholine; conditions: added 15 minutes before spasm-producing agent
Protocol: as §1, §2

femoral artery = experiment: Vasodilator activity, femoral artery (technique of perfused paw); assay type: in vivo; design: key: O: no action; +: slight activity; ++: effect equal to half the effect of papaverine; +++: effect equal to that of papaverine; ++++: effect higher than that of papaverine; conditions: intra-arterial, 30 mg/kg, anaesthetized dog, vs papaverine at same dose
Protocol: (3) The vasodilator activity was measured at the level of femoral artery on anaesthetized dog (technique of perfused paw). The tested substances were given intra-arterially at the rate of 30 mg/kg. Results are expressed with respect to papaverine tested at the same dose.
++: effect equal to half the effect of papaverine.
+++: effect equal to that of papaverine.
++++: effect higher than that of papaverine.

| SMILES | ANTISPASMODIC ACTIVITY HIST. (dose causing complete spasm inhibition) [1] [μg per ml] | LD50 [2] [mg/kg] | ANTIHYPERTENSIVE ACTIVITY [3] | ANTISPASMODIC ACTIVITY ACHOL (dose causing complete spasm inhibition) [4] [μg per ml] | VASODILATOR ACTIVITY (femoral artery) |
| --- | --- | --- | --- | --- | --- |
| Cc1ccc(CCCCNC(C)C(O)c2ccc3c(c2)CCS3)cc1 (centres unmarked) [No 32] | 0.8 | 4000 | +++ (reduction higher than 20 mm Hg) | 1.7 |  |
| CCCCCCCCCCCCCCNC(C)C(O)c1ccc2c(c1)CCCS2 (centres unmarked) [No 76] |  | > 4000 | + (reduction lower than 10 mm Hg) |  |  |
| C=CCCCCCCCCCNC(C)C(O)c1ccc2c(c1)CCS2 (centres unmarked) [No 92] | 16.7 | > 4000 | ++ (reduction of 10 to 20 mm Hg) | 16.7 |  |
| CCC(NCCOc1ccccc1)C(O)c1ccc2c(c1)CCS2 (centres unmarked) [No 126] |  | > 4000 | +++ (reduction higher than 20 mm Hg) |  |  |
| COCCOCCCNC(C)C(O)c1ccc2c(c1)CCS2 (centres unmarked) [No 129] |  | 250 | +++ (reduction higher than 20 mm Hg) |  |  |
| CCCC(=O)OC(c1ccc2c(c1)CCS2)C(C)NCCCCc1ccccc1 (centres unmarked) [No 130] |  | 3700 | +++ (reduction higher than 20 mm Hg) |  |  |
| CCCCCCCCNC(C)C(OC(=O)CC)c1ccc2c(c1)CCCS2 (centres unmarked) [No 131] |  | > 4000 | + (reduction lower than 10 mm Hg) |  |  |
| CC(NCCCCc1ccccc1)C(OC(=O)C1CCC1)c1ccc2c(c1)CCS2 (centres unmarked) [No 132] |  | 1900 | +++ (reduction higher than 20 mm Hg) |  |  |
| CCCCCCCC(=O)OC(c1ccc2c(c1)CCS2)C(C)NCCCCc1ccccc1 (centres unmarked) [No 133] |  | 2600 | +++ (reduction higher than 20 mm Hg) |  |  |
| CCCCCCCCNC(C)C(OC(=O)CCC)c1ccc2c(c1)CCCS2 (centres unmarked) [No 134] |  | > 4000 | +++ (reduction higher than 20 mm Hg) |  |  |
| CCC(NCCCCc1ccccc1)C(O)c1ccc2c(c1)CCCS2 (centres unmarked) [No 135] |  | > 4000 | +++ (reduction higher than 20 mm Hg) |  |  |
| CC(NCCCCc1ccccc1)C(OC(=O)C1CCCC1)c1ccc2c(c1)CCS2 (centres unmarked) [No 137] |  | ~1750 | +++ (reduction higher than 20 mm Hg) |  |  |
| CC(NCCCCc1ccccc1)C(OC(=O)C1CCCCC1)c1ccc2c(c1)CCS2 (centres unmarked) [No 138] |  | > 4000 | +++ (reduction higher than 20 mm Hg) |  |  |
| Cc1ccc(CCCCNC(C)C(O)c2ccc3c(c2)CCC3)cc1 (centres unmarked) [No 166] | 0.8 |  | ++ (reduction of 10 to 20 mm Hg) | 0.8 | +++ |
| CC(NCCCCc1ccccc1)C(O)c1ccc2c(c1)CCCC2 (centres unmarked) [No 171] | 0.8 |  | + (reduction lower than 10 mm Hg) | 0.8 | +++ |
| CC(NCCCC(=O)c1ccc(F)cc1)C(O)c1ccc2c(c1)CCC2 (centres unmarked) [No 175] | 0.8 |  | +++ (reduction higher than 20 mm Hg) | 0.8 | ++ |
| COCCOCCCNC(C)C(O)c1ccc2c(c1)CCC2 (centres unmarked) [No 179] |  | 250 | +++ (reduction higher than 20 mm Hg) |  |  |
